Ends that are not written are not given here.
What was measured:
[1] = system: S. aureus ATCC BAA-2313 (MRSA SCCmec type XI); assay: MIC, broth dilution; type: cell-based, Staphylococcus aureus; conditions: Table 5; STIP3 variants, highest concentration 100 μg/mL
How it was run: (§1)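 Peptides of 95% purity tested as 2-fold dilution series against bacteria diluted to OD 6×10^−4 in cation-adjusted Mueller Hinton broth. Standing cultures incubated overnight at 37° C; MIC is the lowest concentration with no visible growth.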

[2] = system: S. aureus ATCC BAA-2094 (MRSA SCCmec type V); assay: MIC, broth dilution; type: cell-based, Staphylococcus aureus; conditions: Table 5; STIP3 variants, highest concentration 100 μg/mL
How it was run: as §1

[3] = system: S. aureus ATCC BAA-42 (MRSA SCCmec type VI); assay: MIC, broth dilution; type: cell-based, Staphylococcus aureus; conditions: Table 5; STIP3 variants, highest concentration 100 μg/mL
How it was run: as §1

[4] = system: S. aureus ATCC BAA-44 (MRSA SCCmec type I); assay: MIC, broth dilution; type: cell-based, Staphylococcus aureus; conditions: Table 5; STIP3 variants, highest concentration 100 μg/mL
How it was run: as §1

[5] = system: S. aureus ATCC 29213; assay: MIC, broth dilution; type: cell-based, Staphylococcus aureus; conditions: Table 5; STIP3 variants, highest concentration 100 μg/mL
How it was run: as §1

[6] = system: S. aureus ATCC BAA-1683 (MRSA SCCmec type IV); assay: MIC, broth dilution; type: cell-based, Staphylococcus aureus; conditions: Table 5; STIP3 variants, highest concentration 100 μg/mL
How it was run: as §1

[7] = system: S. aureus ATCC 33592 (MRSA SCCmec type III); assay: MIC, broth dilution; type: cell-based, Staphylococcus aureus; conditions: Table 5; STIP3 variants, highest concentration 100 μg/mL
How it was run: as §1

[8] = system: S. aureus ATCC BAA-41 (MRSA SCCmec type II); assay: MIC, broth dilution; type: cell-based, Staphylococcus aureus; conditions: Table 5; STIP3 variants, highest concentration 100 μg/mL
How it was run: as §1

[9] = system: Saccharomyces cerevisiae AR 399; assay: MIC, YPD broth, CDC and FDA AR Candida isolate panel; type: cell-based
How it was run: (§2)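 Broth microdilution in YPD; yeast diluted to optical density […] and mixed with 2-fold serial dilutions of peptide (95% purity), water control. Standing cultures incubated overnight at 37 °C.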

[10] = system: Saccharomyces cerevisiae AR 400; assay: as above; type: cell-based
How it was run: as §2

[11] = system: Candida haemulonii AR 393; assay: as above; type: cell-based
How it was run: as §2

[12] = system: Candida lusitaniae AR 398; assay: as above; type: cell-based
How it was run: as §2

[13] = system: Kodamae ohmeri AR 396; assay: as above; type: cell-based
How it was run: as §2

[14] = system: Candida duobushaemulonii AR 392; assay: as above; type: cell-based
How it was run: as §2

[15] = system: Candida haemulonii AR 395; assay: as above; type: cell-based; conditions: Table 9 below the line: only 200 or 100 μg/mL tested; values reported as 100 are ≤100 μg/mL
How it was run: as §2

[16] = system: Candida duobushaemulonii AR 391; assay: as above; type: cell-based
How it was run: as §2

[17] = system: Candida duobushaemulonii AR 394; assay: as above; type: cell-based
How it was run: as §2

[18] = system: Candida krusei AR 397; assay: as above; type: cell-based
How it was run: as §2

[19] = system: C. albicans MYA-2876; assay: MIC, YPD broth; type: cell-based, Candida albicans; conditions: Table 8
How it was run: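 Minimum inhibitory concentrations against Candida albicans were determined in YPD broth (10 g/L yeast extract, 20 g/L peptone, 20 g/L dextrose) using peptides of 95% purity. A 180 μl volume of diluted yeast was combined with 20 μl of peptide in a 2-fold dilution series in 96-well plates, with sterile water as control, then incubated standing overnight at 37° C.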

[20] = system: C. albicans Y537; assay: MIC, YPD broth; type: cell-based, Candida albicans; conditions: Table 8
[21] = system: Mannheimia haemolytica ATCC 33393; assay: MIC, broth dilution; type: cell-based; conditions: Table 11; highest concentration 25 μg/mL
How it was run: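 Peptides (95% purity) in 2-fold dilution series were mixed with M. haemolytica diluted to OD 6×10^−4 in cation-adjusted Mueller Hinton broth and incubated standing overnight at 37 °C. MIC was the lowest concentration with no visible growth.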

[22] = Table 9 below the line: only 200 or 100 μg/mL tested, values reported as 100 are ≤100 μg/mL
[23] = Table 9 top part: titrations from 1.56 to 100 μg/mL

| Substance | MIC S. aureus ATCC BAA 2313 (XI) [1] [µg/mL] | MIC S. aureus ATCC BAA 2094 (V) [2] [µg/mL] | MIC S. aureus ATCC BAA 42 (VI) [3] [µg/mL] | MIC S. aureus ATCC BAA 44 (I) [4] [µg/mL] | MIC S. aureus ATCC 29213 [5] [µg/mL] | MIC S. aureus ATCC BAA 1683 (IV) [6] [µg/mL] | MIC S. aureus ATCC 33592 (III) [7] [µg/mL] | MIC S. aureus ATCC BAA 41 (II) [8] [µg/mL] | MIC (μg/mL) Saccharomyces cerevisiae AR 399 [9, 22] [µg/mL] | MIC (μg/mL) Saccharomyces cerevisiae AR 400 [10, 22] [µg/mL] | MIC (μg/mL) Candida haemulonii AR 393 [11, 22] | MIC (μg/mL) Candida lusitaniae AR 398 [12, 22] [µg/mL] | MIC (μg/mL) Kodamae ohmeri AR 396 [13, 22] [µg/mL] | MIC (μg/mL) Candida duobushaemulonii AR 392 [14, 22] | MIC (μg/mL) Candida haemulonii AR 395 [15] | MIC (μg/mL) Candida duobushaemulonii AR 391 [16, 22] | MIC (μg/mL) Candida duobushaemulonii AR 394 [17, 22] | MIC C. albicans MYA-2876 [19] [µg/mL] | MIC C. albicans Y537 [20] [µg/mL] | MIC (μg/mL) M. haemolytica [21] [µg/mL] | also measured |
| --- | --- | --- | --- | --- | --- | --- | --- | --- | --- | --- | --- | --- | --- | --- | --- | --- | --- | --- | --- | --- | --- |
| TVGGLVKWILDTVKKFA-NH2 [STIP3-27, TVGGLVKWILDTVKKFA-NH2] | 50 | 25 | 25 | 25 | 50 | 25 | 50 | 25 | ≤ 100 | ≤ 100 | > (values below the line were determined using two concentrations of peptide 200 or 100 μg/mL) | ≤ 100 | ≤ 100 | > (values below the line were determined using two concentrations of peptide 200 or 100 μg/mL) | > (values below the line were determined using two concentrations of peptide 200 or 100 μg/mL) | > (values below the line were determined using two concentrations of peptide 200 or 100 μg/mL) | > (values below the line were determined using two concentrations of peptide 200 or 100 μg/mL) | 25 | 50 | 25 | MIC (μg/mL) Candida krusei AR 397 [18, 22]: ≤ 100 µg/mL |
| TVGGLVKWILKTVKKFA [STIP3-3, TVGGLVKWILKTVKKFA] | 50 | 25 | 50 | 25 | 25 | 50 | 25 | 25 | ≤ 100 | ≤ 100 | > (values below the line were determined using two concentrations of peptide 200 or 100 μg/mL) | ≤ 100 | ≤ 100 | > (values below the line were determined using two concentrations of peptide 200 or 100 μg/mL) | > (values below the line were determined using two concentrations of peptide 200 or 100 μg/mL) | ≤ 100 µg/mL | > (values below the line were determined using two concentrations of peptide 200 or 100 μg/mL) | 25 | 50 | 12.5 | MIC (μg/mL) Candida krusei AR 397 [18, 22]: ≤ 100 µg/mL |
| TVKGLVKWILNVVKKFA-NH2 [STIP3-30, TVKGLVKWILNVVKKFA-NH2] | 25 | 25 | 25 | 12.5 | 12.5 | 12.5 | 12.5 | 25 | – | – | – | – | – | – | – | – | – | 25 | 50 | 12.5 | MIC (μg/mL) Saccharomyces cerevisiae AR 399 [9, 23]: 25 µg/mL; MIC (μg/mL) Saccharomyces cerevisiae AR 400 [10, 23]: 12.5 µg/mL; MIC (μg/mL) Candida haemulonii AR 393 [11, 23]: 100 µg/mL; MIC (μg/mL) Candida lusitaniae AR 398 [12, 23]: 6.25 µg/mL; MIC (μg/mL) Kodamae ohmeri AR 396 [13, 23]: 25 µg/mL; MIC (μg/mL) Candida duobushaemulonii AR 392 [14, 23]: 25 µg/mL; MIC (μg/mL) Candida duobushaemulonii AR 391 [16, 23]: 12.5 µg/mL; MIC (μg/mL) Candida duobushaemulonii AR 394 [17, 23]: 25 µg/mL; MIC (μg/mL) Candida krusei AR 397 [18, 23]: 12.5 µg/mL |

From patent US12370235B2, “Synthetic, non-natural antimicrobial peptides inspired by Staphylococcus auricularis delta toxin” (University of Saskatchewan, priority 2021, dated 2025)
